Source: PubChem BioAssay (NCI)
“And” between values parts separate entries of the source, which are not always exact repeats. Equal values may be shown once.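 Protocol summary: plate cells (96-well), add compound at 5 concentrations, incubate 48 h, interpolate endpoints linearly. GI50 = concentration required for 50% inhibition of growth. TGI: total growth inhibition.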

Key:
Experiment in all cases: DTP human tumour cell line panel, 48 h
UACC-257 melanoma = system: UACC-257 melanoma
SK-MEL-28 melanoma = system: SK-MEL-28 melanoma
SF-268 CNS = system: SF-268 CNS
NCI-H522 lung = system: NCI-H522 lung
UO-31 renal = system: UO-31 renal
RPMI-8226 leukemia = system: RPMI-8226 leukemia
786-0 renal = system: 786-0 renal
SNB-75 CNS = system: SNB-75 CNS
SR leukemia = system: SR leukemia
CCRF-CEM leukemia = system: CCRF-CEM leukemia
A498 renal = system: A498 renal
SF-539 CNS = system: SF-539 CNS
HOP-92 NSCLC = system: HOP-92 NSCLC
IGROV1 ovarian = system: IGROV1 ovarian
OVCAR-4 ovarian = system: OVCAR-4 ovarian
NCI-H226 lung = system: NCI-H226 lung
K-562 leukemia = system: K-562 leukemia
MDA-MB-468 breast = system: MDA-MB-468 breast
SK-MEL-2 melanoma = system: SK-MEL-2 melanoma
MDA-MB-435 = system: MDA-MB-435
U251 CNS = system: U251 CNS
LOX IMVI melanoma = system: LOX IMVI melanoma
SK-OV-3 ovarian = system: SK-OV-3 ovarian
COLO 205 colon = system: COLO 205 colon
HCC-2998 colon = system: HCC-2998 colon
DU-145 prostate = system: DU-145 prostate
HCT-15 colon = system: HCT-15 colon
MALME-3M melanoma = system: MALME-3M melanoma
M14 melanoma = system: M14 melanoma
ACHN renal = system: ACHN renal
HCT-116 colon = system: HCT-116 colon
OVCAR-5 ovarian = system: OVCAR-5 ovarian
UACC-62 melanoma = system: UACC-62 melanoma
SK-MEL-5 melanoma = system: SK-MEL-5 melanoma
TK-10 renal = system: TK-10 renal
A549 NSCLC = system: A549 NSCLC
SNB-19 CNS = system: SNB-19 CNS
SN12C renal = system: SN12C renal
HS 578T breast = system: HS 578T breast
HT29 colon = system: HT29 colon
HL-60(TB) leukemia = system: HL-60(TB) leukemia
MDA-MB-231 breast = system: MDA-MB-231 breast
MOLT-4 leukemia = system: MOLT-4 leukemia
CAKI-1 renal = system: CAKI-1 renal
PC-3 prostate = system: PC-3 prostate
T-47D breast = system: T-47D breast
HOP-62 NSCLC = system: HOP-62 NSCLC
NCI-H23 lung = system: NCI-H23 lung
KM12 colon = system: KM12 colon
NCI/ADR-RES ovarian = system: NCI/ADR-RES ovarian
SF-295 CNS = system: SF-295 CNS
EKVX NSCLC = system: EKVX NSCLC
OVCAR-3 ovarian = system: OVCAR-3 ovarian
MCF7 breast = system: MCF7 breast
OVCAR-8 ovarian = system: OVCAR-8 ovarian
BT-549 breast = system: BT-549 breast
RXF 393 renal = system: RXF 393 renal

Cn1cc(-c2cc3nc(-c4c[nH]c5ccc(Br)cc45)cc(N)n3n2)c2ccccc21
GI50 (UACC-257 melanoma): 1.72 µM
TGI (UACC-257 melanoma): 3.26 µM
GI50 (SK-MEL-28 melanoma): 1.78 µM
TGI (SK-MEL-28 melanoma): 3.22 µM
GI50 (SF-268 CNS): 1.89 µM
TGI (SF-268 CNS): 4.43 µM
GI50 (NCI-H522 lung): 1.5 µM
TGI (NCI-H522 lung): 3.08 µM
GI50 (UO-31 renal): 1.43 µM
TGI (UO-31 renal): 2.73 µM
GI50 (RPMI-8226 leukemia): 2.73 µM
TGI (RPMI-8226 leukemia): 7.93 µM
GI50 (786-0 renal): 1.6 µM
TGI (786-0 renal): 3.27 µM
GI50 (SNB-75 CNS): 1.32 µM
TGI (SNB-75 CNS): 3.11 µM
GI50 (SR leukemia): 1.65 µM
TGI (SR leukemia): 5.28 µM
GI50 (CCRF-CEM leukemia): 2.67 µM
TGI (CCRF-CEM leukemia): 9.34 µM
GI50 (A498 renal): 1.67 µM
TGI (A498 renal): 3.34 µM
GI50 (SF-539 CNS): 1.66 µM
TGI (SF-539 CNS): 3.07 µM
GI50 (HOP-92 NSCLC): 1.51 µM
TGI (HOP-92 NSCLC): 3.08 µM
GI50 (IGROV1 ovarian): 1.5 µM
TGI (IGROV1 ovarian): 2.98 µM
GI50 (OVCAR-4 ovarian): 1.71 µM
TGI (OVCAR-4 ovarian): 3.49 µM
GI50 (NCI-H226 lung): 1.96 µM
TGI (NCI-H226 lung): 5.07 µM
GI50 (K-562 leukemia): 2.29 µM
TGI (K-562 leukemia): 5.94 µM
GI50 (MDA-MB-468 breast): 1.49 µM
TGI (MDA-MB-468 breast): 3.01 µM
GI50 (SK-MEL-2 melanoma): 1.74 µM
TGI (SK-MEL-2 melanoma): 3.48 µM
GI50 (MDA-MB-435): 1.71 µM
TGI (MDA-MB-435): 3.09 µM
GI50 (U251 CNS): 1.72 µM
TGI (U251 CNS): 3.27 µM
GI50 (LOX IMVI melanoma): 1.68 µM
TGI (LOX IMVI melanoma): 3.04 µM
GI50 (SK-OV-3 ovarian): 1.98 µM
TGI (SK-OV-3 ovarian): 4.03 µM
GI50 (COLO 205 colon): 1.89 µM
TGI (COLO 205 colon): 3.51 µM
GI50 (HCC-2998 colon): 1.79 µM
TGI (HCC-2998 colon): 3.26 µM
GI50 (DU-145 prostate): 1.92 µM
TGI (DU-145 prostate): 3.75 µM
GI50 (HCT-15 colon): 1.43 µM
TGI (HCT-15 colon): 2.79 µM
GI50 (MALME-3M melanoma): 1.66 µM
TGI (MALME-3M melanoma): 3.01 µM
GI50 (M14 melanoma): 2.29 µM
TGI (M14 melanoma): 5.78 µM
GI50 (ACHN renal): 1.69 µM
TGI (ACHN renal): 3.13 µM
GI50 (HCT-116 colon): 3 µM
TGI (HCT-116 colon): > 100 µM
GI50 (OVCAR-5 ovarian): 1.62 µM
TGI (OVCAR-5 ovarian): 3.26 µM
GI50 (UACC-62 melanoma): 1.54 µM
TGI (UACC-62 melanoma): 2.92 µM
GI50 (SK-MEL-5 melanoma): 1.71 µM
TGI (SK-MEL-5 melanoma): 3.15 µM
GI50 (TK-10 renal): 1.43 µM
TGI (TK-10 renal): 2.79 µM
GI50 (A549 NSCLC): 1.53 µM
TGI (A549 NSCLC): 3.45 µM
GI50 (SNB-19 CNS): 1.67 µM
TGI (SNB-19 CNS): 3.09 µM
GI50 (SN12C renal): 1.65 µM
TGI (SN12C renal): 3.05 µM
GI50 (HS 578T breast): 1.98 µM
TGI (HS 578T breast): 4.87 µM
GI50 (HT29 colon): 1.66 µM
TGI (HT29 colon): 3.08 µM
GI50 (HL-60(TB) leukemia): 1.84 µM
TGI (HL-60(TB) leukemia): 4.34 µM
GI50 (MDA-MB-231 breast): 1.77 µM
TGI (MDA-MB-231 breast): 3.17 µM
GI50 (MOLT-4 leukemia): 1.67 µM
TGI (MOLT-4 leukemia): 5.15 µM
GI50 (CAKI-1 renal): 1.5 µM
TGI (CAKI-1 renal): 3.06 µM
GI50 (PC-3 prostate): 1.64 µM
TGI (PC-3 prostate): 3.24 µM

COc1ccc2c(c1)c(-c1cc3nc(-c4cn(C)c5ncccc45)cc(N)n3n1)cn2C
GI50 (SK-MEL-28 melanoma): 1.64 µM
TGI (SK-MEL-28 melanoma): 3.02 µM
GI50 (SF-268 CNS): 2.64 µM
TGI (SF-268 CNS): 8.65 µM
GI50 (UO-31 renal): 1.85 µM
TGI (UO-31 renal): 4.57 µM
GI50 (T-47D breast): 3.24 µM
TGI (T-47D breast): 16.3 µM
GI50 (RPMI-8226 leukemia): 2.12 µM
TGI (RPMI-8226 leukemia): 5.44 µM
GI50 (786-0 renal): 1.74 µM
TGI (786-0 renal): 3.2 µM
GI50 (A498 renal): 14.8 µM
TGI (A498 renal): 34.8 µM
GI50 (HOP-62 NSCLC): 3.11 µM
TGI (HOP-62 NSCLC): 13.3 µM
GI50 (SF-539 CNS): 1.65 µM
TGI (SF-539 CNS): 3.06 µM
GI50 (HOP-92 NSCLC): 1.61 µM
TGI (HOP-92 NSCLC): 3.82 µM
GI50 (IGROV1 ovarian): 2.06 µM
TGI (IGROV1 ovarian): 4.64 µM
GI50 (NCI-H23 lung): 3.92 µM
TGI (NCI-H23 lung): 17.9 µM
GI50 (OVCAR-4 ovarian): 2.13 µM
TGI (OVCAR-4 ovarian): 5 µM
GI50 (NCI-H226 lung): 2.36 µM
TGI (NCI-H226 lung): 6.92 µM
GI50 (MDA-MB-468 breast): 1.82 µM
TGI (MDA-MB-468 breast): 3.52 µM
GI50 (SK-MEL-2 melanoma): 2.83 µM
TGI (SK-MEL-2 melanoma): 8.59 µM
GI50 (MDA-MB-435): 1.72 µM
TGI (MDA-MB-435): 3.35 µM
GI50 (KM12 colon): 1.97 µM
TGI (KM12 colon): 4.32 µM
GI50 (NCI/ADR-RES ovarian): 3.62 µM
TGI (NCI/ADR-RES ovarian): 23.5 µM
GI50 (LOX IMVI melanoma): 1.79 µM
TGI (LOX IMVI melanoma): 3.31 µM
GI50 (SK-OV-3 ovarian): 4.65 µM
TGI (SK-OV-3 ovarian): 33 µM
GI50 (HCC-2998 colon): 1.81 µM
TGI (HCC-2998 colon): 3.56 µM
GI50 (DU-145 prostate): 2.88 µM
TGI (DU-145 prostate): 8.26 µM
GI50 (HCT-15 colon): 1.76 µM
TGI (HCT-15 colon): 3.6 µM
GI50 (MALME-3M melanoma): 1.74 µM
TGI (MALME-3M melanoma): 3.17 µM
GI50 (M14 melanoma): 1.8 µM
TGI (M14 melanoma): 3.44 µM
GI50 (ACHN renal): 2.09 µM
TGI (ACHN renal): 4.24 µM
GI50 (SF-295 CNS): 1.81 µM
TGI (SF-295 CNS): 3.49 µM
GI50 (HCT-116 colon): 1.67 µM
TGI (HCT-116 colon): 3.13 µM
GI50 (OVCAR-5 ovarian): 4.76 µM
TGI (OVCAR-5 ovarian): 18 µM
GI50 (UACC-62 melanoma): 1.61 µM
TGI (UACC-62 melanoma): 3.02 µM
GI50 (SK-MEL-5 melanoma): 1.69 µM
TGI (SK-MEL-5 melanoma): 3.24 µM
GI50 (EKVX NSCLC): 3.05 µM
TGI (EKVX NSCLC): 12.5 µM
GI50 (TK-10 renal): 4.25 µM
TGI (TK-10 renal): 14.5 µM
GI50 (A549 NSCLC): 3.37 µM
TGI (A549 NSCLC): 13.8 µM
GI50 (SNB-19 CNS): 3.98 µM
TGI (SNB-19 CNS): 16.8 µM
GI50 (SN12C renal): 5.18 µM
TGI (SN12C renal): 18.2 µM
GI50 (HS 578T breast): 2.09 µM
TGI (HS 578T breast): 6.27 µM
GI50 (OVCAR-3 ovarian): 1.98 µM
TGI (OVCAR-3 ovarian): 4.14 µM
GI50 (HL-60(TB) leukemia): 2.17 µM
TGI (HL-60(TB) leukemia): 5.1 µM
GI50 (MDA-MB-231 breast): 1.84 µM
TGI (MDA-MB-231 breast): 3.89 µM
GI50 (MCF7 breast): 2.27 µM
TGI (MCF7 breast): 5.91 µM
GI50 (CAKI-1 renal): 2.19 µM
TGI (CAKI-1 renal): 6.46 µM
GI50 (PC-3 prostate): 2.75 µM
TGI (PC-3 prostate): > 100 µM
GI50 (OVCAR-8 ovarian): 3.17 µM
TGI (OVCAR-8 ovarian): > 100 µM
GI50 (BT-549 breast): 1.83 µM
TGI (BT-549 breast): 3.77 µM
GI50 (RXF 393 renal): 1.66 µM
TGI (RXF 393 renal): 3.21 µM

COc1cc(/C(Cl)=C/C=C/C(=O)c2c(C)[n+]([O-])c3ccc(Cl)cc3[n+]2[O-])cc(OC)c1OC
GI50 (MDA-MB-468 breast): 1.87 µM
TGI (MDA-MB-468 breast): 9.29 µM

Cc1c2cnccc2c(C)c2c1c1cc(C3OCCCO3)ccc1n2C
GI50 (MDA-MB-468 breast): 0.26 µM
TGI (MDA-MB-468 breast): 0.928 µM

CC(C)[C@](O)(c1ccc2cc(OC(F)F)c(OC(F)F)cc2c1)c1cn[nH]n1
GI50 (MDA-MB-468 breast): 20.9 µM and 14.2 µM
TGI (MDA-MB-468 breast): 57.6 µM and 41.3 µM

C=C1C(=O)O[C@H]2[C@H]1CC/C(CNC(=O)/C=C/c1ccc(Br)cc1)=C\CC[C@@]1(C)O[C@@H]21
GI50 (MDA-MB-468 breast): 0.391 µM
TGI (MDA-MB-468 breast): 1.67 µM

CC/C(Cc1ccccc1)=C(\c1ccc(OCCN2CCCCCC2)cc1)c1ccc(OC(=O)NCc2ccccc2)cc1
GI50 (MDA-MB-468 breast): 2.03 µM
TGI (MDA-MB-468 breast): 8.15 µM
